According to the supplement of paper PMC10307832:

Tests used:
Test in all cases: relative viability (nuclei count vs DMSO), 5 days (fraction); higher = more cells survive
[1] = compound: C=CC(=O)Nc1cc(-n2c(=O)ccc3cnc4ccc(-c5ccc(NS(C)(=O)=O)cc5)cc4c32)ccc1C [BMX-IN-1] + CC(=O)Nc1cccc(-n2c(=O)n(C3CC3)c(=O)c3c(Nc4ccc(I)cc4F)n(C)c(=O)c(C)c32)c1 [Trametinib] (partner 0.02 µM)
Summary of the method: (§1)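 A single step with final 0.05% Triton X-100, 1% formaldehyde and 1 ug/ml Hoechst fixed the cells and stained nuclei 5 days after treatment. Lung cancer cell lines in 1536-well plates had been treated by pin tool the day after seeding with one drug alone or a fixed anchor-drug dose plus five library-drug doses (not always all listed) in √10 steps, and nuclei were counted on 4× images. Relative viability is the ratio of nuclei in treated wells to nuclei in vehicle wells, taken as the median of duplicate plates.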

[2] = compound: C=CC(=O)N1CCC[C@@H](n2nc(-c3ccc(Oc4ccccc4)cc3)c3c(N)ncnc32)C1 [Ibrutinib] + Nc1ncn([C@H]2C[C@H](O)[C@@H](CO)O2)c(=O)n1 [Decitabine] (partner 2 µM)
Summary of the method: as §1

[3] = compound: C=CC(=O)N1CCC[C@@H](n2nc(-c3ccc(Oc4ccccc4)cc3)c3c(N)ncnc32)C1 [Ibrutinib] + C[C@]1(O)C[C@@H](c2nc(-c3ccc4ccc(-c5ccccc5)nc4c3)c3c(N)nccn32)C1 [Linsitinib] (partner 1 µM)
Summary of the method: as §1

[4] = compound: C=CCc1cccc(/C=N/NC(=O)CN2CCN(Cc3ccccc3)CC2)c1O [PAC-1] + CS(=O)(=O)CCNCc1ccc(-c2ccc3ncnc(Nc4ccc(OCc5cccc(F)c5)c(Cl)c4)c3c2)o1 [Lapatinib] (partner 2 µM)
Summary of the method: as §1

Cell Line: NCI-H1975
- relative viability ([1]; first compound 0.02 µM): 0.309
- relative viability ([1]; first compound 0.2 µM): 0.348
- relative viability ([1]; first compound 0.6325 µM): 0.395
- relative viability ([1]; first compound 2 µM): 0.377
- relative viability ([2]; first compound 0.005 µM): 0.414
- relative viability ([2]; first compound 0.01581 µM): 0.354
- relative viability ([2]; first compound 0.05 µM): 0.379
- relative viability ([2]; first compound 0.1581 µM): 0.373
- relative viability ([2]; first compound 0.5 µM): 0.177
- relative viability ([3]; first compound 0.005 µM): 0.916
- relative viability ([3]; first compound 0.01581 µM): 0.834
- relative viability ([3]; first compound 0.05 µM): 0.844
- relative viability ([3]; first compound 0.1581 µM): 0.985
- relative viability ([3]; first compound 0.5 µM): 0.503
- relative viability ([4]; first compound 0.02 µM): 0.866
- relative viability ([4]; first compound 0.06325 µM): 0.871
- relative viability ([4]; first compound 0.2 µM): 0.939
- relative viability ([4]; first compound 2 µM): 0.97

Cell Line: Calu-6
- relative viability ([3]; first compound 0.005 µM): 0.991
- relative viability ([3]; first compound 0.05 µM): 0.928
- relative viability ([3]; first compound 0.1581 µM): 1.04
- relative viability ([3]; first compound 0.5 µM): 0.888
- relative viability ([4]; first compound 0.02 µM): 1.06
- relative viability ([4]; first compound 0.06325 µM): 1.08
- relative viability ([4]; first compound 0.2 µM): 1.01
- relative viability ([4]; first compound 2 µM): 1.18

Cell Line: NCI-H1703
- relative viability ([3]; first compound 0.005 µM): 0.178
- relative viability ([3]; first compound 0.01581 µM): 0.676
- relative viability ([3]; first compound 0.05 µM): 0.632
- relative viability ([3]; first compound 0.1581 µM): 0.467
- relative viability ([3]; first compound 0.5 µM): 0.627
- relative viability ([4]; first compound 0.02 µM): 0.901
- relative viability ([4]; first compound 0.06325 µM): 1.31
- relative viability ([4]; first compound 0.2 µM): 0.906
- relative viability ([4]; first compound 2 µM): 0.952

Cell Line: IA-LM
- relative viability ([3]; first compound 0.005 µM): 0.397
- relative viability ([3]; first compound 0.01581 µM): 0.658
- relative viability ([3]; first compound 0.05 µM): 0.453
- relative viability ([3]; first compound 0.1581 µM): 0.512
- relative viability ([3]; first compound 0.5 µM): 0.56
- relative viability ([4]; first compound 0.02 µM): 0.937
- relative viability ([4]; first compound 0.06325 µM): 0.922
- relative viability ([4]; first compound 0.2 µM): 0.715
- relative viability ([4]; first compound 2 µM): 1.08

Cell Line: CAL-12T
- relative viability ([1]; first compound 0.02 µM): 0.342
- relative viability ([1]; first compound 0.2 µM): 0.318
- relative viability ([1]; first compound 0.6325 µM): 0.31
- relative viability ([1]; first compound 2 µM): 0.36
- relative viability ([3]; first compound 0.005 µM): 0.805
- relative viability ([3]; first compound 0.01581 µM): 0.724
- relative viability ([3]; first compound 0.05 µM): 0.627
- relative viability ([3]; first compound 0.1581 µM): 0.739
- relative viability ([3]; first compound 0.5 µM): 0.472
- relative viability ([4]; first compound 0.02 µM): 0.604
- relative viability ([4]; first compound 0.06325 µM): 0.788
- relative viability ([4]; first compound 0.2 µM): 0.665
- relative viability ([4]; first compound 2 µM): 0.599

Cell Line: ChaGo-K-1
- relative viability ([1]; first compound 0.02 µM): 0.735
- relative viability ([1]; first compound 0.2 µM): 0.986
- relative viability ([1]; first compound 0.6325 µM): 0.891
- relative viability ([1]; first compound 2 µM): 0.91
- relative viability ([2]; first compound 0.005 µM): 0.503
- relative viability ([2]; first compound 0.01581 µM): 0.484
- relative viability ([2]; first compound 0.05 µM): 0.544
- relative viability ([2]; first compound 0.1581 µM): 0.524
- relative viability ([2]; first compound 0.5 µM): 0.54

Cell Line: NCI-H2228
- relative viability ([1]; first compound 0.02 µM): 0.41
- relative viability ([1]; first compound 0.2 µM): 0.596
- relative viability ([1]; first compound 0.6325 µM): 0.481
- relative viability ([1]; first compound 2 µM): 0.488
- relative viability ([3]; first compound 0.005 µM): 0.62
- relative viability ([3]; first compound 0.01581 µM): 0.689
- relative viability ([3]; first compound 0.05 µM): 0.71
- relative viability ([3]; first compound 0.1581 µM): 0.936
- relative viability ([3]; first compound 0.5 µM): 0.454
- relative viability ([4]; first compound 0.02 µM): 1.26
- relative viability ([4]; first compound 0.06325 µM): 1.25
- relative viability ([4]; first compound 0.2 µM): 1.02
- relative viability ([4]; first compound 2 µM): 1.23

Cell Line: NCI-H2342
- relative viability ([1]; first compound 0.02 µM): 0.834
- relative viability ([1]; first compound 0.2 µM): 0.768
- relative viability ([1]; first compound 0.6325 µM): 0.85
- relative viability ([1]; first compound 2 µM): 0.791
- relative viability ([2]; first compound 0.005 µM): 0.739
- relative viability ([2]; first compound 0.01581 µM): 0.64
- relative viability ([2]; first compound 0.05 µM): 0.693
- relative viability ([2]; first compound 0.1581 µM): 0.708
- relative viability ([2]; first compound 0.5 µM): 0.563

Cell Line: NCI-H2170
- relative viability ([1]; first compound 0.02 µM): 0.951
- relative viability ([1]; first compound 0.2 µM): 1.02
- relative viability ([1]; first compound 0.6325 µM): 1.09
- relative viability ([1]; first compound 2 µM): 0.906
- relative viability ([2]; first compound 0.005 µM): 0.438
- relative viability ([2]; first compound 0.01581 µM): 0.47
- relative viability ([2]; first compound 0.05 µM): 0.389
- relative viability ([2]; first compound 0.1581 µM): 0.457
- relative viability ([2]; first compound 0.5 µM): 0.173
- relative viability ([4]; first compound 0.02 µM): 0.247
- relative viability ([4]; first compound 0.06325 µM): 0.258
- relative viability ([4]; first compound 0.2 µM): 0.255
- relative viability ([4]; first compound 2 µM): 0.264

Cell Line: ABC-1
- relative viability ([2]; first compound 0.005 µM): 0.973
- relative viability ([2]; first compound 0.01581 µM): 0.929
- relative viability ([2]; first compound 0.5 µM): 1.19
- relative viability ([3]; first compound 0.005 µM): 0.822
- relative viability ([3]; first compound 0.01581 µM): 0.736
- relative viability ([3]; first compound 0.05 µM): 0.795
- relative viability ([3]; first compound 0.1581 µM): 0.879
- relative viability ([3]; first compound 0.5 µM): 0.644
- relative viability ([4]; first compound 0.02 µM): 1.35
- relative viability ([4]; first compound 0.06325 µM): 1.22
- relative viability ([4]; first compound 0.2 µM): 1.18
- relative viability ([4]; first compound 2 µM): 1.07

Cell Line: NCI-H522
- relative viability ([1]; first compound 0.02 µM): 0.687
- relative viability ([1]; first compound 0.2 µM): 0.805
- relative viability ([1]; first compound 0.6325 µM): 0.728
- relative viability ([1]; first compound 2 µM): 0.744
- relative viability ([2]; first compound 0.005 µM): 0.64
- relative viability ([2]; first compound 0.01581 µM): 0.588
- relative viability ([2]; first compound 0.05 µM): 0.677
- relative viability ([2]; first compound 0.1581 µM): 0.626
- relative viability ([2]; first compound 0.5 µM): 0.637

Cell Line: NCI-H441
- relative viability ([1]; first compound 0.02 µM): 0.451
- relative viability ([1]; first compound 0.2 µM): 0.53
- relative viability ([1]; first compound 0.6325 µM): 0.613
- relative viability ([1]; first compound 2 µM): 0.548
- relative viability ([2]; first compound 0.005 µM): 0.255
- relative viability ([2]; first compound 0.01581 µM): 0.241
- relative viability ([2]; first compound 0.05 µM): 0.231
- relative viability ([2]; first compound 0.1581 µM): 0.211
- relative viability ([2]; first compound 0.5 µM): 0.25
- relative viability ([3]; first compound 0.005 µM): 0.64
- relative viability ([3]; first compound 0.01581 µM): 0.615
- relative viability ([3]; first compound 0.05 µM): 0.585
- relative viability ([3]; first compound 0.1581 µM): 0.518
- relative viability ([3]; first compound 0.5 µM): 0.495

Cell Line: NCI-H1648
- relative viability ([1]; first compound 0.02 µM): 0.435
- relative viability ([1]; first compound 0.2 µM): 0.585
- relative viability ([1]; first compound 0.6325 µM): 0.469
- relative viability ([1]; first compound 2 µM): 0.495
- relative viability ([2]; first compound 0.005 µM): 0.509
- relative viability ([2]; first compound 0.01581 µM): 0.434
- relative viability ([2]; first compound 0.05 µM): 0.518
- relative viability ([2]; first compound 0.1581 µM): 0.433
- relative viability ([2]; first compound 0.5 µM): 0.364
